{"source": "ChEMBL document CHEMBL1681659", "about": "“Discovery of novel positive allosteric modulators of the metabotropic glutamate receptor 5 (mGlu5)” (Bioorg Med Chem Lett, 2011)", "key": {"[1]": {"assay": "Chemical stability assessed as compound remaining after 1 hr by photolysis assay", "format": "physicochemical", "details": "read-out: Stability"}, "[2]": {"assay": "Chemical stability of the compound assessed as half life at pH 1", "format": "physicochemical", "details": "buffer"}, "[3]": {"assay": "Intrinsic clearance in rat liver microsome", "format": "ADME", "details": "liver microsomes"}, "[4]": {"assay": "Intrinsic clearance in human liver microsome", "format": "ADME", "details": "liver microsomes"}, "[5]": {"assay": "Chemical stability of the compound assessed as half life at pH 10", "format": "physicochemical", "details": "buffer"}}, "data": [{"smiles": "O=C1CCOc2nc(C#Cc3ccccc3)ccc21", "values": [{"measurement": "remaining at 1 h", "setting": "[1]", "value": 0, "unit": "%"}, {"measurement": "half-life", "setting": "[2]", "value": 278, "unit": "h"}, {"measurement": "microsomal CLint", "setting": "[3]", "value": 95, "unit": "µL/min/mg"}, {"measurement": "microsomal CLint", "setting": "[4]", "value": 120, "unit": "µL/min/mg"}, {"measurement": "half-life", "setting": "[5]", "value": 24, "unit": "h"}]}]}
